Test results from US10118935B2, “Melampomagnolide B dimers” (priority 2014, dated 2018).
Where two headings read alike, the source gives them in different places.

Assays:
MDA-MB-435 = assay: NCI 60 cell line five dose, Melanoma
HOP-62 = assay: NCI 60 cell line five dose, Non-Small Cell Lung Cancer; format: cell-based, human
RXF 393 = assay: NCI 60 cell line five dose, Renal Cancer
SW-620 = assay: NCI 60 cell line five dose, Colon Cancer
SN12C = assay: NCI 60 cell line five dose, Renal Cancer
SNB-75 = assay: NCI 60 cell line five dose, CNS Cancer
HCT-116 = assay: NCI 60 cell line five dose, Colon Cancer
CAKI-1 = assay: NCI 60 cell line five dose, Renal Cancer
UACC-62 = assay: NCI 60 cell line five dose, Melanoma
UACC-257 = assay: NCI 60 cell line five dose, Melanoma
BT-549 = assay: NCI 60 cell line five dose, Breast Cancer

C=C1C(=O)O[C@H]2[C@H]1CC/C(COC(=O)NCCCCNC(=O)OC/C1=C/CC[C@@]3(C)O[C@H]3[C@H]3OC(=O)C(=C)[C@@H]3CC1)=C\CC[C@@]1(C)O[C@@H]21 [JVM 3-54, bis(((1aR,7aS,10aS,10bS,E)-1a-Methyl-8-methylene-9-oxo-1a,2,3,6,7,7a,8,9,10a,10b-decahydrooxireno[2′,3′:9,10]cyclodeca[1,2-b]furan-5-yl)methyl)butane-1,4-diyldicarbamate]
GI50 (MDA-MB-435): 1.24 µM | TGI (MDA-MB-435): 3.41 µM | Percent Growth (MDA-MB-435; Log10 Concentration −4.0): −97% | Percent Growth (MDA-MB-435; Log10 Concentration −5.0): −53% | Percent Growth (MDA-MB-435; Log10 Concentration −6.0): 60% | Percent Growth (MDA-MB-435; Log10 Concentration −7.0): 82% | Percent Growth (MDA-MB-435; Log10 Concentration −8.0): 100% | CC50 (MDA-MB-435; read-out: LC50): 9.42 µM | GI50 (HOP-62): 3.84 µM | TGI (HOP-62): 14 µM | Percent Growth (HOP-62; Log10 Concentration −4.0): −82% | Percent Growth (HOP-62; Log10 Concentration −5.0): 14% | Percent Growth (HOP-62; Log10 Concentration −6.0): 101% | Percent Growth (HOP-62; Log10 Concentration −7.0): 95% | Percent Growth (HOP-62; Log10 Concentration −8.0): 94% | CC50 (HOP-62; read-out: LC50 (the source's name)): 46.1 µM | GI50 (RXF 393): 1.44 µM | TGI (RXF 393): 3.36 µM | Percent Growth (RXF 393; Log10 Concentration −4.0): −100% | Percent Growth (RXF 393; Log10 Concentration −5.0): −64% | Percent Growth (RXF 393; Log10 Concentration −6.0): 71% | Percent Growth (RXF 393; Log10 Concentration −7.0): 95% | Percent Growth (RXF 393; Log10 Concentration −8.0): 100% | CC50 (RXF 393; read-out: LC50): 7.84 µM | GI50 (SW-620): 0.586 µM | TGI (SW-620): 2.04 µM | Percent Growth (SW-620; Log10 Concentration −4.0): −72% | Percent Growth (SW-620; Log10 Concentration −5.0): −79% | Percent Growth (SW-620; Log10 Concentration −6.0): 35% | Percent Growth (SW-620; Log10 Concentration −7.0): 98% | Percent Growth (SW-620; Log10 Concentration −8.0): 100% | CC50 (SW-620; read-out: LC50): 5.56 µM | GI50 (SN12C): 2.75 µM | TGI (SN12C): 10.1 µM | Percent Growth (SN12C; Log10 Concentration −4.0): −84% | Percent Growth (SN12C; Log10 Concentration −6.0): 89% | Percent Growth (SN12C; Log10 Concentration −7.0): 101% | Percent Growth (SN12C; Log10 Concentration −8.0): 100% | CC50 (SN12C; read-out: LC50): 39.5 µM | GI50 (SNB-75): 2.19 µM | TGI (SNB-75): 16.5 µM | Percent Growth (SNB-75; Log10 Concentration −4.0): −65% | Percent Growth (SNB-75; Log10 Concentration −5.0): 18% | Percent Growth (SNB-75; Log10 Concentration −6.0): 67% | Percent Growth (SNB-75; Log10 Concentration −7.0): 64% | Percent Growth (SNB-75; Log10 Concentration −8.0): 70% | CC50 (SNB-75; read-out: LC50): 66.3 µM | GI50 (HCT-116): 1.12 µM | TGI (HCT-116): 2.63 µM | Percent Growth (HCT-116; Log10 Concentration −4.0): −88% | Percent Growth (HCT-116; Log10 Concentration −5.0): −78% | Percent Growth (HCT-116; Log10 Concentration −6.0): 56% | Percent Growth (HCT-116; Log10 Concentration −7.0): 85% | Percent Growth (HCT-116; Log10 Concentration −8.0): 99% | CC50 (HCT-116; read-out: LC50): 6.19 µM | GI50 (CAKI-1): 10.8 µM | TGI (CAKI-1): 23 µM | Percent Growth (CAKI-1; Log10 Concentration −4.0): −97% | Percent Growth (CAKI-1; Log10 Concentration −5.0): 55% | Percent Growth (CAKI-1; Log10 Concentration −6.0): 91% | Percent Growth (CAKI-1; Log10 Concentration −7.0): 90% | Percent Growth (CAKI-1; Log10 Concentration −8.0): 93% | CC50 (CAKI-1; read-out: LC50): 49.1 µM | GI50 (UACC-62): 0.753 µM | TGI (UACC-62): 2.5 µM | Percent Growth (UACC-62; Log10 Concentration −4.0): −86% | Percent Growth (UACC-62; Log10 Concentration −5.0): −67% | Percent Growth (UACC-62; Log10 Concentration −6.0): 44% | Percent Growth (UACC-62; Log10 Concentration −7.0): 93% | Percent Growth (UACC-62; Log10 Concentration −8.0): 95% | CC50 (UACC-62; read-out: LC50): 7.06 µM | GI50 (UACC-257): 1.68 µM | TGI (UACC-257): 4.99 µM | Percent Growth (UACC-257; Log10 Concentration −4.0): −82% | Percent Growth (UACC-257; Log10 Concentration −5.0): −32% | Percent Growth (UACC-257; Log10 Concentration −6.0): 74% | Percent Growth (UACC-257; Log10 Concentration −7.0): 92% | Percent Growth (UACC-257; Log10 Concentration −8.0): 95% | CC50 (UACC-257; read-out: LC50): 22.9 µM | GI50 (HL-60(TB)): 0.256 µM | TGI (HL-60(TB)): 1.08 µM | Percent Growth (HL-60(TB); Log10 Concentration −4.0): −38% | Percent Growth (HL-60(TB); Log10 Concentration −5.0): −41% | Percent Growth (HL-60(TB); Log10 Concentration −6.0): 1% | Percent Growth (HL-60(TB); Log10 Concentration −7.0): 84% | Percent Growth (HL-60(TB); Log10 Concentration −8.0): 962% | CC50 (HL-60(TB); read-out: LC50): > 100 µM | GI50 (BT-549): 1.6 µM | TGI (BT-549): 3.63 µM | Percent Growth (BT-549; Log10 Concentration −4.0): −98% | Percent Growth (BT-549; Log10 Concentration −5.0): −62% | Percent Growth (BT-549; Log10 Concentration −6.0): 79% | Percent Growth (BT-549; Log10 Concentration −7.0): 91% | Percent Growth (BT-549; Log10 Concentration −8.0): 100%
